Values quoted from earlier work, collected in patent US20050261210A1, “Nonsense suppressor agents in treatment of cutaneous and gastrointestinal disorders” (priority 2004, published 2005).
“Also recorded” adds a separate entry of the source. Where two headings read alike, the source gives them in different places.

Columns and labels:
[1] = tested on: dystrophin; details: cultured muscle cells from mdx mice
[2] = tested on: dystrophin; details: mdx mice, systemic treatment
[3] = tested on: dystrophin; details: Duchenne muscular dystrophy patients with nonsense mutations
[4] = tested on: CFTR; details: cultured respiratory epithelial cells with CFTR nonsense mutations
[5] = tested on: CFTR; details: transgenic mouse model of nonsense-mutated CFTR
[6] = tested on: CFTR; details: cystic fibrosis patients with CFTR nonsense mutation, application to nasal mucosa
[7] = tested on: termination suppression (readthrough); details: for levels of termination suppression: in vitro assay, compared with tobramycin

Compound | dystrophin level [1] | dystrophin expression [2] | muscle injury ([2]; versus untreated mdx mice) | dystrophin expression [3] | expression of functional CFTR protein [4] | expression of functional CFTR protein [5] | functional CFTR protein [6] | levels of termination suppression [7] | level of read-through ([7]; compared with gentamicin)
gentamicin | detectable levels of dystrophin | expression of the protein throughout the animal | protection against the muscle injury | treatment-dependent expression of dystrophin in some patients; also recorded: lack of response in others | restore expression of functional CFTR protein | restore expression of functional CFTR protein | restoration of functional CFTR protein | higher than those provided by tobramycin | –
NCC[C@H](O)C(=O)N[C@@H]1C[C@H](N)[C@@H](O[C@H]2O[C@H](CN)[C@@H](O)[C@H](O)[C@H]2O)[C@H](O)[C@H]1O[C@H]1O[C@H](CO)[C@@H](O)[C@H](N)[C@H]1O [amikacin] | – | – | – | – | – | – | – | higher than those provided by tobramycin | higher level of read-through than gentamicin in some contexts
